Assay results taken from patent publication US11208387B2, “Macrocyclic broad spectrum antibiotics” (Genentech, Inc., priority 2019, dated 2021).
In brackets after ≈: the same amount, converted by molar mass. Read-outs that look alike come from different tables or passages of the source.

Key:
[1] = system: Klebsiella pneumoniae ATCC 700603; assay: Serum MIC, broth micro-dilution; assay type: cell-based; conditions: Klebsiella pneumoniae, read-out: K pneumoniae 700603 Serum MIC
Method in brief: (§1)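 CLSI broth micro-dilution MIC run in 50% v/v cation-adjusted Mueller Hinton II broth plus 50% v/v mouse serum. Compounds were serially 2-fold diluted (10 concentrations) from a top concentration of 64, 4, 0.5 or 0.13 μg/mL; inoculum at final OD600 0.0005, incubated 35° C for 22 hours.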

[2] = system: Escherichia coli strain ATCC 25922; assay: Serum MIC, broth micro-dilution; assay type: cell-based; conditions: Escherichia coli, read-out: E. coli 25922 Serum MIC
Method in brief: as §1

[3] = system: Pseudomonas aeruginosa PA01; assay: Serum MIC, broth micro-dilution; assay type: cell-based; conditions: Pseudomonas aeruginosa, read-out: P. aeruginosa 01 Serum MIC
Method in brief: as §1

[4] = system: Acinetobacter baumannii ATCC 17978; assay: Serum MIC, broth micro-dilution; assay type: cell-based; conditions: Acinetobacter baumannii
Method in brief: as §1

[5] = system: isolated liver mitochondria; assay: Mitochondrial oxygen consumption rate (OCR) assay; assay type: biochemical, Sprague-Dawley rats; conditions: isolated rat liver mitochondria, state 3 (S3) respiration, glutamate/malate; Table 3
Description: Male Sprague-Dawley rats (8-10 weeks of age) were euthanized with an overdose of carbon dioxide. The liver was rapidly excised and placed in ice-cold phosphate-buffered saline (PBS) before isolation process. Mitochondria were isolated using the MitoCheck® Mitochondrial Isolation Kit (Cayman Chemical #701010, Ann Arbor, Mich.) according to manufacturer's instructions. In brief, approximately 10-14 grams of liver tissues were finely minced using a pair of scissors, and washed repeatedly with ice-cold PBS, followed by Mito Isolation Buffer. The minced tissues were homogenized with 30 ml Mito Homogenization Buffer in 40 ml dounce homogenizer and a smooth glass grinder. The homogenate was split into two clean 30 ml polycarbonate tubes and centrifuged at 1,000×g, 4° C., for 3 minutes. The supernatant was subjected to further centrifugation at 10,000×g, 4° C., for 10 minutes. The supernatant was discarded and mitochondrial pellet was suspended in Mito Isolation Buffer using a glass stirring rod and stored on ice until use. Protein concentration of mitochondria was determined using a bicinchoninic acid protein assay kit (Thermo Scientific, Waltham, Mass.).
Oxygen consumption was monitored as essentially described by Will et al., “Analysis of mitochondrial function using phosphorescent oxygen-sensitive probes,” Nature Protocols Vol. 1(6) (2006) 2563. Briefly, isolated mitochondria (50 μg mitochondrial proteins/state 3 (S3) of mitochondrial respiration for inhibitor identification, 100 μg/S2 for uncoupler identification) were incubated with compounds in 25 μl of Measurement Buffer (MB: 250 mM sucrose, 15 mM KCl, 1 mM EGTA, 5 mM MgCl2, 30 mM K2HPO4, pH 7.4) including 1% DMSO on ice for 1 hour, then mixed with 25 μl of substrate mixture including an oxygen-sensitive phosphorescent dye (MitoXpress Xtra, Agilent, Santa Clara, Calif.), glutamate (25 mM, G1626, Sigma, St. Louis, Mo.), malate (25 mM, M6413, Sigma), ADP (3.3 mM, A2754, Sigma, only for S3 of mitochondrial respiration), Fatty acid free BSA (0.1%, A0281, Sigma), and a complex II-specific inhibitor TTFA (2 μM, T27006, Sigma for the assessment of complex I-mitochondrial respiration with glutamate/malate) in a black wall/clear bottom 384-well plate. The mixtures were covered with HS mineral oil (Agilent) using the Viaflo 384-channel pipette (Integra, Hudson, N.H.). Oxygen consumption was measured for 30 min at 30° C. using a spectrofluorimeter (FLUOstar Omega, BMG Labtech, Cary, N.C.). In S3, DMSO vehicle control and antimycin A (10 μM) were used to define 0% and 100% inhibition. In S2, DMSO vehicle and FCCP (0.5-1 μM) was used to define 0% and 100% uncoupling, respectively. Area under curve typically in a range of 0-12 min (S3) or 0-24 min (S2) was used for calculations. IC50 or UC50 (uncoupling concentration), a concentration that causes 50% of inhibition or maximal (uncoupling) activation of oxygen consumption, was used to evaluate experimental quality. Data were presented as μM (per 50 μg (S3) or 100 μg (S2) mitochondrial proteins). Compounds with IC50: <100 μM (S3) and/or UC50: <200 μM (S2) were considered as high-risk on mitochondrial toxicity. Compounds with 25-50% changes in inhibition and/or uncoupling were categorized as medium-risk, since compounds with >25% changes are considered as responders.
Toxicity associated with mitochondrial dysfunction has presented a problem for promising potential antibiotics as we as other types of therapeutics. The mitochondrial oxygen consumption rate (OCR) assay is considered a reliable indicator of potential internal organ toxicity issues that may occur with powerful antibiotics. The carboxylate compounds of the invention show unexpected lower toxicity than prior art “glycine nitrile” arylomycin analogs (see, e.g., WO 2018/149419) in the mitochondrial oxygen consumption rate (OCR) assay.

[6] = ATCC17978, 22 h, read-out: A. baumanii 17978 Serum MIC
[7] = ATCC17978, 22 h, read-out: Acinetobacter baumanii 17978 Serum MIC
[8] = ATCC700603, 50% v/v mouse serum in Mueller Hinton II cation adjusted Broth, 35° C., 22 hours, Table 4
[9] = ATCC25922, 50% v/v mouse serum in Mueller Hinton II cation adjusted Broth, 35° C., 22 hours, Table 4
[10] = PA01, 50% v/v mouse serum in Mueller Hinton II cation adjusted Broth, 35° C., 22 hours, Table 4
[11] = ATCC17978, 50% v/v mouse serum in Mueller Hinton II cation adjusted Broth, 35° C., 22 hours, Table 4, read-out: A. baumanii 17978 Serum MIC
[12] = ATCC17978, 50% v/v mouse serum in Mueller Hinton II cation adjusted Broth, 35° C., 22 hours, Table 5, read-out: Acinetobacter baumanii 17978 Serum MIC

| Compound | IC50 [5] [µM] | MIC [1, 8] [µM] | MIC [2, 9] [µM] | MIC [3, 10] [µM] | MIC [4, 11] [µM] | MIC [4, 12] [µM] | MIC ([1]; ATCC700603, 22 h) [µM] | MIC ([2]; ATCC25922, 22 h) [µM] | MIC ([3]; PA01, 22 h) [µM] | MIC [4, 6] [µM] | MIC [4, 7] [µM] |
| --- | --- | --- | --- | --- | --- | --- | --- | --- | --- | --- | --- |
| Cc1nc(-c2ccc(C(C)(C)C)cc2)nc(C)c1C(=O)N[C@@H](CCN)C(=O)N(C)[C@@H]1C(=O)N[C@@H](C)C(=O)N[C@H](C(=O)O)Cc2ccc(OC[C@H](O)CN)c(c2)-c2cc1cc(OC[C@H](O)CN)c2O [Example 19, (8S,11S,14S)-18-hydroxy-11-methyl-14-[methyl-[(2S)-4-amino-2-[[2-(4-tert-butylphenyl)-4,6-dimethyl-pyrimidine-5-carbonyl]amino]-butanoyl]amino]-10,13-dioxo-3,17-bis[(2R)-3-amino-2-hydroxy-propoxyl]-9,12-diazatricyclo-[13.3.1.12,6]icosa-1(18),2(20),3,5,15(19), 16-hexaene-8-carboxylic acid] | > 250 |  |  |  |  |  | 0.25 (≈ 0.236 µg/mL) | 0.25 (≈ 0.236 µg/mL) | 8 (≈ 7.54 µg/mL) | 16 (≈ 15.1 µg/mL) | 16 (≈ 15.1 µg/mL) |
| Cc1nc(-c2ccc(OC(C)C)cc2)ncc1C(=O)N[C@@H](CCN)C(=O)N(C)[C@@H]1C(=O)N[C@@H](C)C(=O)N[C@H](C(=O)O)Cc2ccc(OC[C@H](O)CN)c(c2)-c2cc1cc(OC[C@H](O)CN)c2O [Example 20, (8S,11S,14S)-18-hydroxy-11-methyl-14-[methyl-[(2S)-4-amino-2-[[2-(4-isopropoxyphenyl)-4-methyl-pyrimidine-5-carbonyl]amino]-butanoyl]amino]-10,13-dioxo-3,17-bis[(2R)-3-amino-2-hydroxy-propoxy]-9,12-diazatricyclo-[13.3.1.12,6]icosa-1(18),2(20),3,5,15(19), 16-hexaene-8-carboxylic acid] | > 250 |  |  |  |  |  | 0.46 (≈ 0.428 µg/mL) | 0.58 (≈ 0.539 µg/mL) | 64 (≈ 59.5 µg/mL) | 16 (≈ 14.9 µg/mL) | 16 (≈ 14.9 µg/mL) |
| Cc1nc(-c2ccc(C(C)(C)C)cc2)ncc1C(=O)N[C@@H](CCN)C(=O)N(C)[C@@H]1C(=O)N[C@@H](C)C(=O)N[C@H](C(=O)O)Cc2ccc(OC[C@H](O)CN)c(c2)-c2cc1cc(OC[C@H](O)CN)c2O [Example 23, (8S,11S,14S)-18-hydroxy-11-methyl-14-[methyl-[(2S)-4-amino-2-[[2-(4-tert-butylphenyl)-4-methyl-pyrimidine-5-carbonyl]amino]-butanoyl]amino]-10,13-dioxo-3,17-bis[(2R)-3-amino-2-hydroxy-propoxy]-9,12-diazatricyclo-[13.3.1.12,6]icosa-1(18),2(20),3,5,15(19), 16-hexaene-8-carboxylic acid] | 22 | 0.16 (≈ 0.148 µg/mL) | 0.22 (≈ 0.204 µg/mL) | 16 (≈ 14.8 µg/mL) | 8 (≈ 7.42 µg/mL) | 8 (≈ 7.42 µg/mL) |  |  |  |  |  |
| Cc1nc(-c2ccc(OCCC(C)(C)C)cc2)ncc1C(=O)N[C@@H](CCN)C(=O)N(C)[C@@H]1C(=O)N[C@@H](C)C(=O)N[C@H](C(=O)O)Cc2ccc(OC[C@H](O)CN)c(c2)-c2cc1cc(OC[C@H](O)CN)c2O [Example 27, (8S,11S,14S)-18-hydroxy-11-methyl-14-[methyl-[(2S)-4-amino-2-[[2-[4-(3,3-dimethylbutoxy)-phenyl]-4-methyl-pyrimidine-5-carbonyl]amino]-butanoyl]amino]-10,13-dioxo-3,17-bis[(2R)-3-amino-2-hydroxy-propoxy]-9,12-diazatricyclo-[13.3.1.12,6]icosa-1(18),2(20),3,5,15(19), 16-hexaene-8-carboxylic acid] | 20 | 0.25 (≈ 0.243 µg/mL) | 0.25 (≈ 0.243 µg/mL) | 8 (≈ 7.78 µg/mL) | 12 (≈ 11.7 µg/mL) | 12 (≈ 11.7 µg/mL) |  |  |  |  |  |

Further lines, with some results ahead:

| IC50 [5] [µM] | MIC [1, 8] [µM] | MIC [2, 9] [µM] | MIC [3, 10] [µM] | MIC [4, 11] [µM] | MIC [4, 12] [µM] | Compound | MIC ([1]; ATCC700603, 22 h) [µM] | MIC ([2]; ATCC25922, 22 h) [µM] | MIC ([3]; PA01, 22 h) [µM] | MIC [4, 6] [µM] | MIC [4, 7] [µM] |
| --- | --- | --- | --- | --- | --- | --- | --- | --- | --- | --- | --- |
| > 200 | 0.25 (≈ 0.236 µg/mL) | 0.5 (≈ 0.472 µg/mL) | 16 (≈ 15.1 µg/mL) | 16 (≈ 15.1 µg/mL) | 16 (≈ 15.1 µg/mL) | Cc1nc(-c2ccc(C(C)(C)C)cc2)nc(N)c1C(=O)N[C@@H](CCN)C(=O)N(C)[C@@H]1C(=O)N[C@@H](C)C(=O)N[C@H](C(=O)O)Cc2ccc(OC[C@H](O)CN)c(c2)-c2cc1cc(OC[C@H](O)CN)c2O [Example 24, (8S,11S,14S)-18-hydroxy-11-methyl-14-[methyl-[(2S)-4-amino-2-[[4-amino-2-(4-tert-butylphenyl)-6-methyl-pyrimidine-5-carbonyl]amino]-butanoyl]amino]-10,13-dioxo-3,17-bis[(2R)-3-amino-2-hydroxy-propoxy]-9,12-diazatricyclo-[13.3.1.12,6]icosa-1(18),2(20),3,5,15(19), 16-hexaene-8-carboxylic acid] |  |  |  |  |  |
| > 250 | 0.17 (≈ 0.157 µg/mL) | 0.21 (≈ 0.194 µg/mL) | 43 (≈ 39.8 µg/mL) | 11 (≈ 10.2 µg/mL) | 11 (≈ 10.2 µg/mL) | Cc1nc(-c2ccc(C3(C)CC3)cc2)ncc1C(=O)N[C@@H](CCN)C(=O)N(C)[C@@H]1C(=O)N[C@@H](C)C(=O)N[C@H](C(=O)O)Cc2ccc(OC[C@H](O)CN)c(c2)-c2cc1cc(OC[C@H](O)CN)c2O [Example 28, (8S,11S,14S)-18-hydroxy-11-methyl-14-[methyl-[(2S)-4-amino-2-[[4-methyl-2-[4-(1-methylcyclo-propyl)phenyl]-pyrimidine-5-carbonyl]amino]-butanoyl]amino]-10,13-dioxo-3,17-bis[(2R)-3-amino-2-hydroxy-propoxy]-9,12-diazatricyclo-[13.3.1.12,6]icosa-1(18),2(20),3,5,15(19), 16-hexaene-8-carboxylic acid] |  |  |  |  |  |
| > 250 | 0.75 (≈ 0.696 µg/mL) | 1 (≈ 0.928 µg/mL) | 16 (≈ 14.8 µg/mL) | 32 (≈ 29.7 µg/mL) | 32 (≈ 29.7 µg/mL) | Cc1nc(-c2ccc(C(C)(C)C)cc2)nc(C)c1C(=O)N[C@@H](CN)C(=O)N(C)[C@@H]1C(=O)N[C@@H](C)C(=O)N[C@H](C(=O)O)Cc2ccc(OC[C@H](O)CN)c(c2)-c2cc1cc(OC[C@H](O)CN)c2O [Example 30, (8S,11S,14S)-18-hydroxy-11-methyl-14-[methyl-[(2S)-3-amino-2-[[2-(4-tert-butylphenyl)-4,6-dimethyl-pyrimidine-5-carbonyl]amino]-propanoyl]amino]-10,13-dioxo-3,17-bis[(2R)-3-amino-2-hydroxy-propoxy]-9,12-diazatricyclo-[13.3.1.12,6]icosa-1(18),2(20),3,5,15(19), 16-hexaene-8-carboxylic acid] |  |  |  |  |  |
